Experimental data taken from patent publication US6344458B1, “Piperazine ethylamide derivatives” (American Home Products Corporation, priority 1998, dated 2002).
Where a name gives a salt, the structure may show the parent alone.

Experiments:
human 5HT1A receptor [1] = target: T1, human 5HT1A receptor (Homo sapiens, UniProt P08908); test: 5-HT1A Receptor Binding Assay ([3H] 8-OH-DPAT displacement); conditions: displacement of [3H] 8-OH-DPAT, CHO cells stably transfected with human 5HT1A receptor
T1 construct: expressed in transfected cells; host or cells: CHO cells (stably transfected)
T1 sequence (P08908 1-422): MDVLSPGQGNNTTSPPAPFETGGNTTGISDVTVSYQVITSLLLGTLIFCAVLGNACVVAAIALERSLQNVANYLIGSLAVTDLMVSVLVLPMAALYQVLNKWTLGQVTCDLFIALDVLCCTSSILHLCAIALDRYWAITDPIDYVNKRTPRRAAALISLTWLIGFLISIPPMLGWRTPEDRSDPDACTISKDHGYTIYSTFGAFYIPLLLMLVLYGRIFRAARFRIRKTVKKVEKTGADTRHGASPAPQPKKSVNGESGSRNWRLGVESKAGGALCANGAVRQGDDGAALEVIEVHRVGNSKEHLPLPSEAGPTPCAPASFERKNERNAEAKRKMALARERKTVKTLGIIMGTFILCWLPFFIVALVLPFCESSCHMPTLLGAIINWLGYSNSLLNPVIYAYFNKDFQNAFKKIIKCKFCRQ
Procedure: 5-HT1A Receptor Binding Assay
High affinity for the serotonin 5-HT1A receptor was established by testing a compound's ability to displace [^3H] 8-OH-DPAT binding in CHO cells stably transfected with the human 5HT1A receptor. Stably transfected CHO cells are grown in DMEM containing 10% heat inactivated FBS and non-essential amino acids. Cells are scraped off the plate, transferred to centrifuge tubes, and washed twice by centrifugation (2000 rpm for 10 min., 4° C.) in buffer (50 mM Tris pH 7.5). The resulting pellets are aliquoted and placed at −80° C. On the day of assay, the cells are thawed on ice and resuspended in buffer. The binding assay is performed in a 96 well microtiter plate in a total volume of 250 μL. Non-specific binding is determined in the presence of […] 5-HT, final ligand concentration is 1.5 nM. Following a 30 minute incubation at room temperature, the reaction is terminated by the addition of ice cold buffer and rapid filtration through a GF/B filter presoaked for 30 minutes in 0.5% PEI. Compounds are initially tested in a single point assay to determine percent inhibition at […], and Ki values are determined for the active compounds.

human 5HT1A receptor [2] = target: T1, human 5HT1A receptor; test: 5-HT1A Receptor Intrinsic Activity Assay (reversal of forskolin-stimulated cAMP); type: cell-based; conditions: for Emax: agonist activity, cAMP, forskolin-stimulated CHO cells with human 5-HT1A receptor
Procedure: 5-HT1A Receptor Intrinsic Activity Assay
The intrinsic activity of compounds of the present invention was established by testing the claimed compounds ability to reverse the stimulation of cyclic adenosinemonophosphate (cAMP) in CHO cells stably transfected with the human 5-HT1A receptor.
Stably transfected CHO cells were grown in DMEM containing 10% heat inactivated FBS and non-essential amino acids. The cells are plated at a density of […] per well in a 24 well plate and incubated for 2 days in a CO2 incubator. On the second day, the media is replaced with 0.5 mL treatment buffer (DMEM+25 mM HEPES, 5 mM theophylline, 10 μM pargyline) and incubated for 10 minutes at 37° C. Wells are treated with forskolin (1 μM final concentration) followed immediately by the test compound (0.1 and 1 μM for initial screen) and incubated for an additional 10 minutes at 37° C. The reaction is terminated by removal of the media and addition of 0.5 mL ice cold assay buffer (supplied in the RIA kit). Plates are stored at −20° C. prior to assessment of cAMP formation by RIA. EC50 values are determined for the active test compounds. Compounds shown to have no agonist activities (Emax=0%) are further analyzed for their ability to reverse agonist induced activity. In separate experiments, 6 concentrations of antagonist are preincubated for 20 minutes prior to the addition of agonist and forskolin. Cells are harvested as described above. The cAMP kit is supplied by Amersham and the RIA is performed as per kit instructions, and calculations of IC50 performed by GraphPad Prism.

Row | melting point [°C] | Ki (human 5HT1A receptor [1]) [nM] | Emax (human 5HT1A receptor [2]) [%] | SMILES | other results
1 | 136 to 138 |  |  | COc1ccccc1N1CCN(CCNC(=O)c2ccccc2)CC1 (as salt: fumaric acid salt) [Compound 1, N-{2-[4-(2-Methoxy-phenyl)-piperazin-1-yl]-ethyl}-benzamide] | 
2 | 107 to 108 |  |  | COc1ccccc1N1CCN(CCNC(=O)CCc2ccccc2)CC1 (as salt: fumaric acid salt) [Compound 7, N-{2-[4-(2-Methoxy-phenyl)-piperazin-1-yl]-ethyl}-3-phenyl-propionamide] | 
3 |  | 26 | 88 | COc1ccccc1N1CCN(CCN(Cc2cccc3ccccc23)C(=O)C2CCCCC2)CC1 [Compound 4, Cyclohexanecarboxylic acid{2-[4-(2-methoxy-phenyl)-piperazin-1-yl]-ethyl}-naphthalen-1-ylmethl-amide] | 
4 |  | 1.8 | 36 | COc1ccccc1N1CCN(CCN(Cc2ccccc2)C(=O)C2CCCCC2)CC1 [Compound 2, Cyclohexanecarboxylic acid benzyl-{2-[4-(2-methoxy-phenyl)-piperazin-1-yl]-ethyl}-amide] | EC50 (human 5HT1A receptor [2]; agonist mode, reversal of forskolin-stimulated cAMP in CHO cells): 4.2 nM
5 | 103 to 105 |  |  | COc1ccccc1N1CCN(CCN(CCCc2ccccc2)C(=O)C2CCCCC2)CC1 (as salt: fumarate) [Compound 8, Cyclohexanecarboxylic acid-{2-[4-(2-methoxy-phenyl)-piperazin-1-yl]-ethyl}-(3-phenyl-propyl)-amide] | 
6 | 204 to 206 |  |  | COc1ccccc1N1CCN(CCN(Cc2cccc3ccccc23)C(=O)C2CCCCC2)CC1 (as salt: fumarate) [Compound 4, Cyclohexanecarboxylic acid{2-[4-(2-methoxy-phenyl)-piperazin-1-yl]-ethyl}-naphthalen-1-ylmethl-amide] | 
7 | 144 to 146 |  |  | COc1ccccc1N1CCN(CCN(Cc2ccccc2)C(=O)C2CCCCC2)CC1 (as salt: fumarate) [Compound 2, Cyclohexanecarboxylic acid benzyl-{2-[4-(2-methoxy-phenyl)-piperazin-1-yl]-ethyl}-amide] | 
8 |  | 1.2 | 0 | COc1ccccc1N1CCN(CCN(Cc2ccc3ccccc3c2)C(=O)C2CCCCC2)CC1 [Compound 6, Cyclohexanecarboxylic acid-{2-[4-(2-methoxy-phenyl)-piperazin-1-yl]-ethyl}-naphthalen-2-ylmethyl-amide] | IC50 (human 5HT1A receptor [2]; antagonist mode, reversal of agonist induced activity, preincubated 20 minutes before agonist and forskolin): 24 nM
9 |  | 20 | 77 | COc1ccccc1N1CCN(CCN(CCCc2ccccc2)C(=O)C2CCCCC2)CC1 [Compound 8, Cyclohexanecarboxylic acid-{2-[4-(2-methoxy-phenyl)-piperazin-1-yl]-ethyl}-(3-phenyl-propyl)-amide] | 
